Common to all, as to assay: antimicrobial activity, MIC, standard process of Japan Society of Chemotherapy
Common to all, as to format: cell-based

In one test the test system is Pr. vulgaris, 3167. The conditions noted are these: for MIC: Proteus vulgaris, 3167, Pr. vulgaris, read-out: minimum growth inhibitory concentration (MIC); for minimum growth inhibitory concentration (MIC): Pr. vulgaris. The protocol: (§1) The antimicrobial activities of the compounds of the present invention were determined according to a standard process designated by the Japan Society of Chemotherapy and the minimum growth inhibitory concentrations (MIC) (μg/ml) the compounds were determined.

Another test deals with Ps. aeruginosa, 2063. The following applies: for MIC: Pseudomonas aeruginosa, 2063, Ps. aeruginosa, read-out: minimum growth inhibitory concentration (MIC); for minimum growth inhibitory concentration (MIC): Ps. aeruginosa. On the procedure: as §1
The test system of a further test is Ps. maltophilia, IID1275. The following applies: for MIC: Stenotrophomonas maltophilia, IID1275, Ps. maltophilia, read-out: minimum growth inhibitory concentration (MIC); for minimum growth inhibitory concentration (MIC): Ps. maltophilia. The protocol: as §1
The test system of a further test is Sh. flexneri, 2a5503. The following applies: for MIC: Shigella flexneri, read-out: minimum growth inhibitory concentration (MIC). The protocol: as §1
The test system of the next test is Str. pyogenes, G-36. The following applies: for MIC: Streptococcus pyogenes, G36, Str. pyogenes, read-out: minimum growth inhibitory concentration (MIC); for minimum growth inhibitory concentration (MIC): Str. pyogenes. On the procedure: as §1
For another test, the system named is Ps. cepacia, IID1340. The following applies: for MIC: Burkholderia cepacia, IID1340, Ps. cepacia, read-out: minimum growth inhibitory concentration (MIC); for minimum growth inhibitory concentration (MIC): Ps. cepacia. On the procedure:
as §1

The next test deals with Ser. marcescens, 13001. The following applies: for MIC: Serratia marcescens, 13001, Ser. marcescens, read-out: minimum growth inhibitory concentration (MIC); for minimum growth inhibitory concentration (MIC): Ser. marcescens. On the procedure:
as §1

In test [1] the test system is Str. faecalis, ATCC 19433. The following applies: for MIC: Enterococcus faecalis, ATCC19433, Str. faecalis, read-out: minimum growth inhibitory concentration (MIC); for minimum growth inhibitory concentration (MIC): Str. faecalis. On the procedure: as §1
Another test deals with S. aureus, 209P. The following applies: for MIC: Staphylococcus aureus, read-out: minimum growth inhibitory concentration (MIC). The protocol: as §1
In the next test the test system is S. epidermidis, 56500. The following applies: for MIC: Staphylococcus epidermidis, 56500, S. epidermidis, read-out: minimum growth inhibitory concentration (MIC); for minimum growth inhibitory concentration (MIC): S. epidermidis. The protocol: as §1
The test system of another test is Pr. mirabilis, IF03849. The conditions noted are these: for MIC: Proteus mirabilis, IF03849, Pr. mirabilis, read-out: minimum growth inhibitory concentration (MIC); for minimum growth inhibitory concentration (MIC): Pr. mirabilis. The protocol:
as §1

The next test concerns E. coli, NIHJ. The conditions noted are these: for MIC: Escherichia coli, read-out: minimum growth inhibitory concentration (MIC). On the procedure:
as §1

In a further test the test system is Ps. aeruginosa, 2128. The conditions noted are these: for MIC: Pseudomonas aeruginosa, 2128, Ps. aeruginosa, read-out: minimum growth inhibitory concentration (MIC); for minimum growth inhibitory concentration (MIC): Ps. aeruginosa. The protocol: as §1

Seven compounds from patent US5416222A, “3-pyrrolidine methanamines wherein the alpha-carbon is substituted by 1 or 2 lower alkyl groups which are intermediates for pyridone-carboxylic acid derivatives” (Daiichi Seiyaku Co., Ltd., priority 1985, dated 1995) can be followed below.

In brackets after ≈: the same amount, converted by molar mass. Where only a bound is given, the exact number is not on record here.

For the compound `CCC(N)C1CCN(c2c(F)cc3c(=O)c(C(=O)O)cn(CC)c3c2F)C1` (stereo not shown) [Example 10, 7-[3-(1-Aminopropyl)-1-pyrrolindinyl]-1-ethyl-6,8-difluoro-1,4-dihydro-4-oxoquinoline-3-carboxylic acid], the MIC in the test on Pr. vulgaris, 3167 was 0.1 µg/mL (≈ 0.264 µM); in the test with Ps. aeruginosa, 2063, 1.56 µg/mL (≈ 4.11 µM); in the test with Ps. maltophilia, IID1275, 0.39 µg/mL (≈ 1.03 µM); in the test on Sh. flexneri, 2a5503 it was at most 0.05 µg/mL; in the test on Str. pyogenes, G-36, at most 0.05 µg/mL; in the test on Ps. cepacia, IID1340, 1.56 µg/mL (≈ 4.11 µM). Also, the MIC with Ser. marcescens, 13001 is 0.2 µg/mL (≈ 0.527 µM); in [1], at most 0.05 µg/mL; with S. aureus, 209P, at most 0.05 µg/mL; in the test with S. epidermidis, 56500 it was 0.1 µg/mL (≈ 0.264 µM); in the test with Pr. mirabilis, IF03849 it was 0.2 µg/mL (≈ 0.527 µM); in the test with E. coli, NIHJ it was at most 0.05 µg/mL. For the same compound, in the test on Ps. aeruginosa, 2128, the MIC was determined as 6.39 µg/mL (≈ 16.8 µM).
As to `CCn1cc(C(=O)O)c(=O)c2cc(F)c(N3CCC(C4(N)CC4)C3)c(F)c21` (stereo not shown) [Example 16, 7-[3-(1-aminocyclopropyl)-1-pyrrolidinyl]-1-ethyl-6,8-difluoro-1,4-dihydro-4-oxoquinoline-3-carboxylic acid], the MIC with Pr. vulgaris, 3167 is 0.2 µg/mL (≈ 0.53 µM); in the test with Ps. aeruginosa, 2063, 1.56 µg/mL (≈ 4.13 µM); with Ps. maltophilia, IID1275, 0.39 µg/mL (≈ 1.03 µM); with Sh. flexneri, 2a5503, at most 0.05 µg/mL; in the test with Str. pyogenes, G-36, 0.2 µg/mL (≈ 0.53 µM); in the test with Ps. cepacia, IID1340, 0.78 µg/mL (≈ 2.07 µM). The MIC in the test with Ser. marcescens, 13001 was 0.39 µg/mL (≈ 1.03 µM); in test [1] it was 0.39 µg/mL (≈ 1.03 µM); in the test on S. aureus, 209P, at most 0.05 µg/mL; in the test on S. epidermidis, 56500, 0.2 µg/mL (≈ 0.53 µM); with Pr. mirabilis, IF03849, 0.39 µg/mL (≈ 1.03 µM); in the test on E. coli, NIHJ it was at most 0.05 µg/mL. Moreover, the MIC in the test on Ps. aeruginosa, 2128 was 0.39 µg/mL (≈ 1.03 µM).
In the case of `CC(N)C1CCN(c2nc3c(cc2F)c(=O)c(C(=O)O)cn3C2CC2)C1` (stereo not shown) [Example 18, 7-[3-(1-Aminoethyl)-1-pyrrolidinyl]-1-1-cyclopropyl-6-fluoro-1,4-dihydro-4-oxo-1,8-naphthylidine-3-carboxylic acid], the “minimum growth inhibitory concentration (MIC)” value was 0.10 µg/mL in the test on Pr. vulgaris, 3167; 0.39 µg/mL in the test on Ps. aeruginosa, 2063; 0.20 µg/mL with Ps. maltophilia, IID1275; at most 0.05 µg/mL in the test with Sh. flexneri, 2a5503; 0.39 µg/mL with Str. pyogenes, G-36; 0.39 µg/mL with Ps. cepacia, IID1340. Further, the “minimum growth inhibitory concentration (MIC)” value was 0.20 µg/mL in the test on Ser. marcescens, 13001; 0.20 µg/mL in test [1]; at most 0.05 µg/mL in the test on S. aureus, 209P; at most 0.05 µg/mL with S. epidermidis, 56500; 0.20 µg/mL in the test with Pr. mirabilis, IF03849; at most 0.05 µg/mL with E. coli, NIHJ. Further, the “minimum growth inhibitory concentration (MIC)” value in the test with Ps. aeruginosa, 2128 is 0.20 µg/mL.
As for `NC1(C2CCN(c3c(F)cc4c(=O)c(C(=O)O)cn(C5CC5)c4c3F)C2)CC1` (stereo not shown) [Example 15], the MIC was 0.1 µg/mL (≈ 0.257 µM) with Pr. vulgaris, 3167; 0.39 µg/mL (≈ 1 µM) in the test on Ps. aeruginosa, 2063; 0.2 µg/mL (≈ 0.514 µM) with Ps. maltophilia, IID1275; at most 0.05 µg/mL in the test on Sh. flexneri, 2a5503; at most 0.05 µg/mL with Str. pyogenes, G-36; 0.39 µg/mL (≈ 1 µM) in the test with Ps. cepacia, IID1340. For the same compound, the MIC in the test on Ser. marcescens, 13001 is 0.2 µg/mL (≈ 0.514 µM); in test [1] it was 0.2 µg/mL (≈ 0.514 µM); in the test with S. aureus, 209P, at most 0.05 µg/mL; with S. epidermidis, 56500, at most 0.05 µg/mL; in the test on Pr. mirabilis, IF03849, 0.2 µg/mL (≈ 0.514 µM); in the test on E. coli, NIHJ, at most 0.05 µg/mL. Also, the MIC with Ps. aeruginosa, 2128 was found to be 0.2 µg/mL (≈ 0.514 µM).
Consider `CCC(N)C1CCN(c2c(F)cc3c(=O)c(C(=O)O)cn(C4CC4)c3c2F)C1` (single isomer, unassigned) [Example 21, 1-Cyclopropyl-6,8-difluoro-7-[3-(1aminopropyl)-1-pyrrolidinyl]-1,4-dihydro-4-oxoquinoline-3-carboxylic acid], for which the MIC was at most 0.05 µg/mL in the test on Pr. vulgaris, 3167; 0.2 µg/mL (≈ 0.511 µM) with Ps. aeruginosa, 2063; at most 0.05 µg/mL in the test with Ps. maltophilia, IID1275; at most 0.05 µg/mL with Sh. flexneri, 2a5503; at most 0.05 µg/mL with Str. pyogenes, G-36; 0.2 µg/mL (≈ 0.511 µM) in the test with Ps. cepacia, IID1340. For the same compound, the MIC in the test with Ser. marcescens, 13001 was at most 0.05 µg/mL; in test [1], at most 0.05 µg/mL; in the test on S. aureus, 209P, at most 0.05 µg/mL; with S. epidermidis, 56500, at most 0.05 µg/mL; with Pr. mirabilis, IF03849, 0.1 µg/mL (≈ 0.255 µM); with E. coli, NIHJ it was at most 0.05 µg/mL. Further, the MIC in the test with Ps. aeruginosa, 2128 turned out to be 0.1 µg/mL (≈ 0.255 µM).
For the compound `CCC(N)C1CCN(c2c(F)cc3c(=O)c(C(=O)O)cn(C4CC4)c3c2F)C1` (stereo not shown) [Example 22], the “minimum growth inhibitory concentration (MIC)” value with Pr. vulgaris, 3167 was at most 0.05 µg/mL; in the test with Ps. aeruginosa, 2063 it was 0.39 µg/mL; with Ps. maltophilia, IID1275, 0.20 µg/mL; in the test on Sh. flexneri, 2a5503, at most 0.05 µg/mL; in the test on Str. pyogenes, G-36, 0.20 µg/mL; with Ps. cepacia, IID1340, 0.20 µg/mL. The “minimum growth inhibitory concentration (MIC)” value is 0.10 µg/mL in the test on Ser. marcescens, 13001; 0.20 µg/mL in [1]; at most 0.05 µg/mL in the test on S. aureus, 209P; at most 0.05 µg/mL in the test with S. epidermidis, 56500; 0.10 µg/mL with Pr. mirabilis, IF03849; at most 0.05 µg/mL with E. coli, NIHJ. Moreover, in the test with Ps. aeruginosa, 2128, the “minimum growth inhibitory concentration (MIC)” value worked out at 0.20 µg/mL.
`CCn1cc(C(=O)O)c(=O)c2cc(F)c(N3CCC(C(C)N)C3)c(F)c21` (single isomer, unassigned) [Example 3, 7-[3-(1-Aminoethyl)-1-pyrrolidinyl]-1-ethyl-6,8-difluoro-1,4-dihydro-4-oxoquinoline-3-carboxylic acid]: the “minimum growth inhibitory concentration (MIC)” value in the test with Pr. vulgaris, 3167 came out at 0.20 µg/mL; with Str. pyogenes, G-36, 0.39 µg/mL; in test [1], 0.39 µg/mL; in the test on S. epidermidis, 56500, 0.20 µg/mL. Further, the MIC is 0.39 µg/mL (≈ 1.07 µM) in the test on Ps. aeruginosa, 2063; 0.78 µg/mL (≈ 2.13 µM) with Ps. maltophilia, IID1275; at most 0.05 µg/mL in the test with Sh. flexneri, 2a5503; 1.56 µg/mL (≈ 4.27 µM) in the test with Ps. cepacia, IID1340; 0.2 µg/mL (≈ 0.547 µM) with Ser. marcescens, 13001; at most 0.05 µg/mL in the test with S. aureus, 209P. Also, the MIC with Pr. mirabilis, IF03849 is 0.2 µg/mL (≈ 0.547 µM); in the test on E. coli, NIHJ, at most 0.05 µg/mL; in the test with Ps. aeruginosa, 2128 it was 0.2 µg/mL (≈ 0.547 µM).
